Experimental data as given in PubChem BioAssay (NCI).
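1) Cells in 96-well plates. 2) Compound, 48 h, 5 concentrations. 3) Linear interpolation between surrounding doses. 4) Unreached endpoint = highest concentration. Abbreviation: GI50, concentration required for 50% inhibition of growth. The concentration for full growth arrest is given as TGI.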

Key:
Assay in all cases: inhibition of tumour cell growth, NCI panel, 48 h
[1] = tested on: COLO 205 colon
[2] = tested on: HCT-116 colon
[3] = tested on: HL-60(TB) leukemia
[4] = tested on: HOP-62 NSCLC
[5] = tested on: HT29 colon
[6] = tested on: NCI-H23 lung
[7] = tested on: RXF 393 renal
[8] = tested on: SK-MEL-28 melanoma
[9] = tested on: SF-268 CNS
[10] = tested on: NCI/ADR-RES ovarian

Structure (SMILES)	TGI [1]	TGI [2]	TGI [3]	TGI [4]	TGI [5]	TGI [6]	TGI [7]	TGI [8]	TGI [9]	GI50 [2]	GI50 [3]	GI50 [5]	GI50 [6]	GI50 [7]	GI50 [9]	GI50 [8]	GI50 [1]	GI50 [4]	GI50 [10]	TGI [10]
CC(=O)O[C@]1(C)OC(=O)[C@@H](CC(C)C)N1[N+](=O)[O-]	> 100 µM	> 100 µM	> 100 µM	> 100 µM	> 100 µM	> 100 µM	> 100 µM	> 100 µM	–	–	–	–	–	–	–	–	–	–	–	–
CCOC(=O)N1CCc2cc(OC)c(OC)cc2/C1=C\c1ccc(OC)c(OC)c1	59.9 µM	40.4 µM	53.1 µM	> 100 µM	40.8 µM	> 100 µM	54.2 µM	> 100 µM	> 100 µM	–	–	–	–	–	–	–	–	–	–	–
CC(=O)[O-].[Mn+3].[O-]c1ccccc1C=NCCNCCN=Cc1ccccc1[O-]	–	> 100 µM	> 100 µM	–	> 100 µM	> 100 µM	> 100 µM	> 100 µM	> 100 µM	> 100 µM	> 100 µM	> 100 µM	> 100 µM	> 100 µM	> 100 µM	> 100 µM	–	–	–	–
COc1ccc(C(=O)NNc2nc(Cl)nc(N3CCN(C(c4ccccc4)c4ccccc4)CC3)n2)cc1	13.4 µM	3.22 µM	10.5 µM	10.7 µM	–	4.02 µM	3.84 µM	3.76 µM	4.31 µM	1.74 µM	2.54 µM	–	1.88 µM	1.83 µM	2.01 µM	1.84 µM	3.21 µM	2.97 µM	–	–
COc1cc(NC(=O)CCSc2nc3ccc(C)cc3c(=O)n2Cc2ccccc2)cc(OC)c1OC	> 100 µM	> 100 µM	–	9.47 µM	> 100 µM	> 100 µM	16.6 µM	> 100 µM	49.6 µM	4.35 µM	–	> 100 µM	26.6 µM	3.48 µM	4.22 µM	6.3 µM	> 100 µM	2.94 µM	9.25 µM	> 100 µM
C[Si](C)(C)/C=C\CCO	> 100 µM	> 100 µM	> 100 µM	–	> 100 µM	> 100 µM	> 100 µM	> 100 µM	> 100 µM	–	–	–	–	–	–	–	–	–	–	–
Cc1nc(Nc2ccccn2)sc1C(=O)/C=C/c1ccc(Cl)cc1	1.35 µM	> 51.8 µM	–	> 100 µM	47.5 µM	> 100 µM	–	> 100 µM	> 100 µM	0.381 µM	0.353 µM	0.47 µM	0.567 µM	–	0.974 µM	2.19 µM	0.322 µM	0.574 µM	0.34 µM	> 100 µM
C[C@]12CC[C@H](O)CC1=CC[C@@H]1C2CC[C@]2(C)Nc3c(cnn3-c3ccccc3)CC12 (stereo not given in full)	–	12.2 µM	7 µM	8.81 µM	4.88 µM	63 µM	4.01 µM	18.7 µM	–	–	–	–	–	–	–	–	–	–	–	–
CC(C)(C)C(=CS(=O)/N=C/c1ccccc1)C(C)(C)C (stereo not given)	> 100 µM	> 100 µM	–	> 100 µM	> 100 µM	> 100 µM	74.5 µM	> 100 µM	> 100 µM	–	–	–	–	–	–	–	–	–	–	–
